Assay results from ChEMBL document CHEMBL3046627, “Synthesis and in vitro study of antibacterial, antifungal activities of some novel bisquinolines” (2013).
In brackets after ≈: the same amount, converted by molar mass. Activity calls are given as the source filed them. The calls are words filed in the database; no cut-off is given here.

Assays:
Assay type in all cases: functional
Candida tropicalis [1] = assay: Antifungal activity against Candida tropicalis assessed as growth inhibition after 96 hr by agar dilution method
Vibrio cholerae [2] = assay: Antibacterial activity against Vibrio cholerae 759 assessed as growth inhibition at MIC after 24 hr by agar dilution method
Micrococcus luteus [3] = assay: Antibacterial activity against Micrococcus luteus ATCC 9341 assessed as growth inhibition at MIC after 24 hr by agar dilution method
Bacillus pumilus [4] = assay: Antibacterial activity against Bacillus pumilus 11778 assessed as growth inhibition at MIC after 24 hr by agar dilution method
Micrococcus luteus [5] = assay: Antibacterial activity against Micrococcus luteus ATCC 9341 assessed as growth inhibition after 24 hr by agar dilution method
Candida albicans [6] = assay: Antifungal activity against Candida albicans assessed as growth inhibition after 96 hr by agar dilution method
Vibrio cholerae [7] = assay: Antibacterial activity against Vibrio cholerae 759 assessed as growth inhibition after 24 hr by agar dilution method
Bacillus pumilus [8] = assay: Antibacterial activity against Bacillus pumilus 11778 assessed as growth inhibition after 24 hr by agar dilution method
Pseudomonas aeruginosa [9] = assay: Antibacterial activity against Pseudomonas aeruginosa 71 assessed as growth inhibition after 24 hr by agar dilution method
Klebsiella pneumoniae [10] = assay: Antibacterial activity against Klebsiella pneumoniae J/I/4 assessed as growth inhibition after 24 hr by agar dilution method
Klebsiella pneumoniae [11] = assay: Antibacterial activity against Klebsiella pneumoniae J/I/4 assessed as growth inhibition at MIC after 24 hr by agar dilution method
Staphylococcus aureus [12] = assay: Antibacterial activity against Staphylococcus aureus 29737 assessed as growth inhibition at MIC after 24 hr by agar dilution method
Shigella dysenteriae [13] = assay: Antibacterial activity against Shigella dysenteriae 15 assessed as growth inhibition at MIC after 24 hr by agar dilution method
Escherichia coli [14] = assay: Antibacterial activity against Escherichia coli 319 assessed as growth inhibition after 24 hr by agar dilution method
Pseudomonas aeruginosa [15] = assay: Antibacterial activity against Pseudomonas aeruginosa 71 assessed as growth inhibition at MIC after 24 hr by agar dilution method
Shigella dysenteriae [16] = assay: Antibacterial activity against Shigella dysenteriae 15 assessed as growth inhibition after 24 hr by agar dilution method
Escherichia coli [17] = assay: Antibacterial activity against Escherichia coli 319 assessed as growth inhibition at MIC after 24 hr by agar dilution method
Cryptococcus neoformans [18] = assay: Antifungal activity against Cryptococcus neoformans assessed as growth inhibition after 96 hr by agar dilution method
Staphylococcus aureus [19] = assay: Antibacterial activity against Staphylococcus aureus 29737 assessed as growth inhibition after 24 hr by agar dilution method
Aspergillus niger [20] = assay: Antifungal activity against Aspergillus niger assessed as growth inhibition after 96 hr by agar dilution method
Candida albicans [21] = assay: Antifungal activity against Candida albicans assessed as growth inhibition at MIC after 96 hr by agar dilution method
Aspergillus niger [22] = assay: Antifungal activity against Aspergillus niger assessed as growth inhibition at MIC after 96 hr by agar dilution method
Cryptococcus neoformans [23] = assay: Antifungal activity against Cryptococcus neoformans assessed as growth inhibition at MIC after 96 hr by agar dilution method
Candida tropicalis [24] = assay: Antifungal activity against Candida tropicalis assessed as growth inhibition at MIC after 96 hr by agar dilution method
[25] = Pseudomonas aeruginosa, 71, 24 h
[26] = Staphylococcus aureus, 29737, 24 h

Compound	MIC (Candida tropicalis [1])	diameter of the inhibition zone (DIZ) (Vibrio cholerae [2])	diameter of the inhibition zone (DIZ) (Micrococcus luteus [3])	diameter of the inhibition zone (DIZ) (Bacillus pumilus [4])	MIC (Micrococcus luteus [5]; ATCC 9341, 24 h) [µg/mL]	MIC (Candida albicans [6])	MIC (Vibrio cholerae [7]; Vibrio cholerae, 759, 24 h) [µg/mL]	MIC (Bacillus pumilus [8]; Bacillus pumilus, 11778, 24 h) [µg/mL]	MIC (Cryptococcus neoformans [18])	MIC (Aspergillus niger [20])	diameter of the inhibition zone (DIZ) (Candida albicans [21])	diameter of the inhibition zone (DIZ) (Cryptococcus neoformans [23])	MIC (Micrococcus luteus [5])	MIC (Vibrio cholerae [7])	MIC (Bacillus pumilus [8])	MIC (Pseudomonas aeruginosa [9])	MIC (Klebsiella pneumoniae [10])	MIC (Escherichia coli [14])	MIC (Shigella dysenteriae [16])	MIC (Staphylococcus aureus [19])	further results
Cc1ccc2cccc(OCc3cc4ccccc4cc3COc3cccc4ccc(C)nc34)c2n1	inactive	inactive	inactive	6 mm	> 1000	inactive	> 500	64 (≈ 136 µM)	inactive	inactive											MIC (Pseudomonas aeruginosa [9]; [25]): > 500 µg/mL; MIC (Klebsiella pneumoniae [10]; J/I/4, 24 h): > 1000 µg/mL; diameter of the inhibition zone (DIZ) (Klebsiella pneumoniae [11]): inactive; diameter of the inhibition zone (DIZ) (Staphylococcus aureus [12]): 6.1 mm; diameter of the inhibition zone (DIZ) (Shigella dysenteriae [13]): 8 mm; MIC (Escherichia coli [14]; Escherichia coli, 319, 24 h): > 500 µg/mL; diameter of the inhibition zone (DIZ) (Pseudomonas aeruginosa [15]): inactive; MIC (Shigella dysenteriae [16]; Shigella dysenteriae, 15, 24 h): > 500 µg/mL; diameter of the inhibition zone (DIZ) (Escherichia coli [17]): 7 mm; MIC (Staphylococcus aureus [19]; [26]): > 500 µg/mL
OC(Cn1cncn1)(Cn1cncn1)c1ccc(F)cc1F [FLUCONAZOLE]	8 µg/mL (≈ 26.1 µM)					4 µg/mL (≈ 13.1 µM)			8 µg/mL (≈ 26.1 µM)	10 µg/mL (≈ 32.7 µM)	10.2 mm	8.5 mm									diameter of the inhibition zone (DIZ) (Aspergillus niger [22]): 8.6 mm; diameter of the inhibition zone (DIZ) (Candida tropicalis [24]): 8.5 mm
c1cc(COc2cccc3cccnc23)cc(COc2cccc3cccnc23)c1	inactive					inactive			inactive	inactive	inactive	inactive	inactive	inactive	inactive	inactive	inactive	inactive	inactive	inactive	diameter of the inhibition zone (DIZ) (Aspergillus niger [22]): inactive; diameter of the inhibition zone (DIZ) (Candida tropicalis [24]): inactive
c1ccc(COc2cccc3cccnc23)c(COc2cccc3cccnc23)c1	inactive	inactive	7 mm	inactive	> 500	inactive	> 500	500 (≈ 1270 µM)	inactive	inactive	inactive	inactive									diameter of the inhibition zone (DIZ) (Aspergillus niger [22]): inactive; MIC (Pseudomonas aeruginosa [9]; [25]): > 500 µg/mL; MIC (Klebsiella pneumoniae [10]; J/I/4, 24 h): 32 µg/mL (≈ 81.5 µM); diameter of the inhibition zone (DIZ) (Klebsiella pneumoniae [11]): 8 mm; diameter of the inhibition zone (DIZ) (Staphylococcus aureus [12]): 7.2 mm; diameter of the inhibition zone (DIZ) (Shigella dysenteriae [13]): 6.5 mm; MIC (Escherichia coli [14]; Escherichia coli, 319, 24 h): > 500 µg/mL; diameter of the inhibition zone (DIZ) (Candida tropicalis [24]): inactive; diameter of the inhibition zone (DIZ) (Pseudomonas aeruginosa [15]): 6 mm; MIC (Shigella dysenteriae [16]; Shigella dysenteriae, 15, 24 h): 32 µg/mL (≈ 81.5 µM); diameter of the inhibition zone (DIZ) (Escherichia coli [17]): inactive; MIC (Staphylococcus aureus [19]; [26]): 32 µg/mL (≈ 81.5 µM)
Clc1ccc(OCc2cccc(COc3ccc(Cl)c4cccnc34)c2)c2ncccc12	1000 µg/mL (≈ 2170 µM)	6 mm	8 mm	inactive	64 (≈ 139 µM)	inactive	256 (≈ 555 µM)	> 500	inactive	1000 µg/mL (≈ 2170 µM)	inactive	inactive									diameter of the inhibition zone (DIZ) (Aspergillus niger [22]): 8 mm; MIC (Pseudomonas aeruginosa [9]; [25]): 256 µg/mL (≈ 555 µM); MIC (Klebsiella pneumoniae [10]; J/I/4, 24 h): 32 µg/mL (≈ 69.4 µM); diameter of the inhibition zone (DIZ) (Klebsiella pneumoniae [11]): 6 mm; diameter of the inhibition zone (DIZ) (Staphylococcus aureus [12]): 8 mm; diameter of the inhibition zone (DIZ) (Shigella dysenteriae [13]): 8 mm; MIC (Escherichia coli [14]; Escherichia coli, 319, 24 h): > 500 µg/mL; diameter of the inhibition zone (DIZ) (Candida tropicalis [24]): 7 mm; diameter of the inhibition zone (DIZ) (Pseudomonas aeruginosa [15]): 6 mm; MIC (Shigella dysenteriae [16]; Shigella dysenteriae, 15, 24 h): 32 µg/mL (≈ 69.4 µM); diameter of the inhibition zone (DIZ) (Escherichia coli [17]): inactive; MIC (Staphylococcus aureus [19]; [26]): 128 µg/mL (≈ 277 µM)
Cc1ccc2cccc(OCc3nc4ccccc4nc3COc3cccc4ccc(C)nc34)c2n1	inactive					inactive			inactive	inactive			inactive	inactive	inactive	inactive	inactive	inactive	inactive	inactive	
Cc1ccc2cccc(OCc3cccc(COc4cccc5ccc(C)nc45)c3)c2n1	inactive					inactive			inactive	inactive	inactive	inactive	inactive	inactive	inactive	inactive	inactive	inactive	inactive	inactive	diameter of the inhibition zone (DIZ) (Aspergillus niger [22]): inactive; diameter of the inhibition zone (DIZ) (Candida tropicalis [24]): inactive
c1cnc2c(OCc3nc4ccccc4nc3COc3cccc4cccnc34)cccc2c1	inactive					inactive			inactive	inactive			inactive	inactive	inactive	inactive	inactive	inactive	inactive	inactive	
c1ccc2cc(COc3cccc4cccnc34)c(COc3cccc4cccnc34)cc2c1	inactive	7.1 mm	6 mm	9 mm	> 500	inactive	> 500	256 (≈ 579 µM)	inactive	inactive											MIC (Pseudomonas aeruginosa [9]; [25]): > 500 µg/mL; MIC (Klebsiella pneumoniae [10]; J/I/4, 24 h): > 500 µg/mL; diameter of the inhibition zone (DIZ) (Klebsiella pneumoniae [11]): 6.4 mm; diameter of the inhibition zone (DIZ) (Staphylococcus aureus [12]): 6 mm; diameter of the inhibition zone (DIZ) (Shigella dysenteriae [13]): 6 mm; MIC (Escherichia coli [14]; Escherichia coli, 319, 24 h): 32 µg/mL (≈ 72.3 µM); diameter of the inhibition zone (DIZ) (Pseudomonas aeruginosa [15]): 8.2 mm; MIC (Shigella dysenteriae [16]; Shigella dysenteriae, 15, 24 h): > 500 µg/mL; diameter of the inhibition zone (DIZ) (Escherichia coli [17]): 9.7 mm; MIC (Staphylococcus aureus [19]; [26]): > 500 µg/mL
GENTAMICIN													24 µg/mL	2 µg/mL	10 µg/mL	4 µg/mL	0.25 µg/mL		2 µg/mL	1 µg/mL	inhibition zone (IZ) (Vibrio cholerae [2]): 11 mm; inhibition zone (IZ) (Micrococcus luteus [3]): 7 mm; inhibition zone (IZ) (Bacillus pumilus [4]): 7 mm; inhibition zone (IZ) (Klebsiella pneumoniae [11]): 9 mm; inhibition zone (IZ) (Shigella dysenteriae [13]): 12 mm
Clc1ccc(OCc2ccc(COc3ccc(Cl)c4cccnc34)cc2)c2ncccc12	inactive					inactive			inactive	inactive			inactive	inactive	inactive	inactive	inactive	inactive	inactive	inactive	
c1cnc2c(OCc3ccc(COc4cccc5cccnc45)cc3)cccc2c1	inactive					inactive			inactive	inactive	inactive	inactive	inactive	inactive	inactive	inactive	inactive	inactive	inactive	inactive	
CC1(C)S[C@@H]2[C@H](NC(=O)[C@H](N)c3ccc(O)cc3)C(=O)N2[C@H]1C(=O)O [AMOXICILLIN]		7 mm	11 mm	10 mm	1 (≈ 2.74 µM)		256 (≈ 701 µM)	0.5 (≈ 1.37 µM)													MIC (Pseudomonas aeruginosa [9]; [25]): 256 µg/mL (≈ 701 µM); MIC (Klebsiella pneumoniae [10]; J/I/4, 24 h): 256 µg/mL (≈ 701 µM); diameter of the inhibition zone (DIZ) (Klebsiella pneumoniae [11]): 8 mm; diameter of the inhibition zone (DIZ) (Staphylococcus aureus [12]): 10.5 mm; diameter of the inhibition zone (DIZ) (Shigella dysenteriae [13]): 9.5 mm; MIC (Escherichia coli [14]; Escherichia coli, 319, 24 h): 4 µg/mL (≈ 10.9 µM); diameter of the inhibition zone (DIZ) (Pseudomonas aeruginosa [15]): 7.5 mm; MIC (Shigella dysenteriae [16]; Shigella dysenteriae, 15, 24 h): 100 µg/mL (≈ 274 µM); diameter of the inhibition zone (DIZ) (Escherichia coli [17]): 8 mm; MIC (Staphylococcus aureus [19]; [26]): 0.5 µg/mL (≈ 1.37 µM)
Cc1ccc2cccc(OCc3ccc(COc4cccc5ccc(C)nc45)cc3)c2n1	inactive					inactive			inactive	inactive			inactive	inactive	inactive	inactive	inactive	inactive	inactive	inactive	
